This is an account of results in patent US20140066410A1, “INHIBITORS OF BROMODOMAINS AS MODULATORS OF GENE EXPRESSION” (ICAHN SCHOOL OF MEDICINE AT MOUNT SINAI, priority 2011, published 2014).

For one experiment, the system named is melanoma cells. Nature of the experiment: Melanoma cell proliferation in vitro. Type of experiment: cell-based. Conditions: FIG. 6, FIG. 7.
Another experiment has as its system NF-κB. Nature of the experiment: TNFα-induced NF-kB activation, luciferase in NF-kB response element HEK293 cells. To be noted: Homo sapiens; NF-κB-response element stabilized HEK293 cells; read-out: IC50, inhibition of TNFα-induced activation of NF-κB. Type of experiment: cell-based. The protocol: FIG. 5. […] A. NF-kB activation by TNFa (10 ng/mL). HEK 293 cells ([…]) in a 24-well plate were stabilized with NF-kB response element (NF-kB_RE) was treated with TNF. Twenty-four hours after the treatment, the cells were harvested and lysed, and luciferase activity was determined.
Dysregulation of macrophages and T cell functions trigger inflammatory responses contributing to IBD progression. Given its pro-inflammatory functions, NF-κB inhibition has anti-inflammatory effects, as shown by inhibition of IKK activity, which prevents phoshorylation and release of IκBα from NF-κB.

In a further experiment the test system is melanocytes. The experiment in a line: Proliferation of normal melanocytes. Type of experiment: cell-based. Conditions: in vitro; FIG. 6.
The next experiment addresses CBP BRD (Homo sapiens, UniProt Q92793). Nature of the experiment: Bromodomain binding affinity (tryptophan fluorescence binding assay). On the procedure: (§1) Monitoring change of intrinsic tryptophan fluorescence of a protein induced by ligand binding can be used to determine ligand binding affinity (KD). This assay was used to assess ligand binding to the CBP BRD and ischemin binding to the BRDs from other transcription proteins as follows. The chemical ligands were prepared at 500-850 μM in the PBS buffer. Their serial dilutions by a factor of 1.5 in a 384-wells black plate were carried out using a Tecan EVO200 liquid handler down to a concentration of 0.5 nM. Protein was added to the compounds to a final concentration in each well of 5 μM. Tryptophan fluorescence of the protein was measured (with excitation set at 280 nm, emission at 350 nm) on a Tecan Safire2 reader. Inner filter correction was introduced to take into account the possible intrinsic fluorescence of the compound. […] KD was calculated based on the curve fitting.

The target in a further experiment is T1, PCAF (Homo sapiens, UniProt Q92831).
T1 sequence (Q92831 723-827 limits assumed): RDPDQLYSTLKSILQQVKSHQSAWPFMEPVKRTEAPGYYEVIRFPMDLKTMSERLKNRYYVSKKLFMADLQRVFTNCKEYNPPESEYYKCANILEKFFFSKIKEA
The experiment is described as above. On the procedure:
as §1

The target in a further experiment is BRD4-2 (Homo sapiens, UniProt O60885). Described as above. Conditions: Table 4; read-out: BrD4-2 (μM), bromodomain binding. On the procedure:
as §1

The target of the next experiment is BRD4-1 (Homo sapiens, UniProt O60885). The description is as above. On the procedure:
as §1

Where [1] appears, read: Table 4, read-out: CBP (μM), bromodomain binding.
Where [2] appears, read: Table 4, read-out: PCAF (μM), bromodomain binding.

Each structure is given as a SMILES string. Where two headings read alike, the source gives them in different places.

Sequence of CBP BRD (Q92793 1085-1192 limits assumed): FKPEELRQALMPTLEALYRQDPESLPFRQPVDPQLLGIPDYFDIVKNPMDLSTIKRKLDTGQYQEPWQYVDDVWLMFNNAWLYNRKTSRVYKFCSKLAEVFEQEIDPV

As to `Cc1cc(/N=N/c2ccc(S(=O)(=O)Nc3ccccn3)cc2)c(N)cc1O` [MS0129436], the “Inhibition of melanoma cell proliferation” value with melanoma cells was “inhibits proliferation”. In addition, the IC50 (in general, the concentration at which inhibition is half-maximal) in the experiment on NF-κB was 0.057 µM. Moreover, the “Effect on normal melanocytes” value in the experiment with melanocytes is listed as “no effect”. The Kd at CBP BRD (setting [1]) is 14 µM; on CBP BRD (Table 5, read-out: CBP), 14 µM; at PCAF (setting [2]) it was 6.8 µM; at PCAF (Table 5, read-out: PCAF), 8.6 µM.
In the case of `O=C(O)c1cc(/N=N/c2ccc(S(=O)(=O)Nc3ccccn3)cc2)ccc1O` [Sulfasalazine (MS0123028), Sulfasalazine, reference compound], the IC50 with NF-κB was 0.22 µM. Further, the Kd at CBP BRD (setting [1]) is 82 µM; at CBP BRD (Table 5, read-out: CBP), 82 µM; on BRD4-2, 54 µM; at BRD4-1 (Table 4, read-out: BrD4-1 (μM), bromodomain binding) it was 54 µM; on BRD4-1 (Table 5, read-out: BrD4-1), 54 µM; on PCAF (setting [2]), 88 µM. The Kd on PCAF (Table 5, read-out: PCAF) was determined as 88 µM.
